Experimental data: ChEMBL document CHEMBL4507274 (2021)

Columns and labels:
[1] = biological target: AP2-associated protein kinase 1 (Homo sapiens) (UniProt Q2M2I8); conditions: Compound concentration 100.0 nM
[2] = biological target: Dual specificity protein kinase CLK3 (Homo sapiens) (UniProt P49761); conditions: Compound concentration 100.0 nM
[3] = biological target: Tyrosine-protein kinase CSK (Homo sapiens) (UniProt P41240); conditions: Compound concentration 100.0 nM
[4] = biological target: Serine/threonine-protein kinase 17B (Homo sapiens) (UniProt O94768); conditions: Compound concentration 100.0 nM
[5] = biological target: Ephrin type-A receptor 3 (Homo sapiens) (UniProt P29320); conditions: Compound concentration 100.0 nM
[6] = biological target: Mitogen-activated protein kinase 15 (Homo sapiens) (UniProt Q8TD08); conditions: Compound concentration 100.0 nM
[7] = biological target: Beta-adrenergic receptor kinase 1 (Homo sapiens) (UniProt P25098); conditions: Compound concentration 100.0 nM
[8] = biological target: Tyrosine-protein kinase JAK2 (Homo sapiens) (UniProt O60674); conditions: Compound concentration 100.0 nM
[9] = biological target: Mitogen-activated protein kinase 9 (Homo sapiens) (UniProt P45984); conditions: Compound concentration 100.0 nM
[10] = system: Mast/stem cell growth factor receptor Kit (Homo sapiens), P10721 [L576P]; conditions: Compound concentration 100.0 nM
[11] = biological target: Leucine-rich repeat serine/threonine-protein kinase 2 (Homo sapiens) (UniProt Q5S007); conditions: Compound concentration 100.0 nM
[12] = biological target: T1, Dual specificity mitogen-activated protein kinase kinase 7 (Homo sapiens) (UniProt O14733); conditions: Compound concentration 100.0 nM
T1 sequence (whole entry): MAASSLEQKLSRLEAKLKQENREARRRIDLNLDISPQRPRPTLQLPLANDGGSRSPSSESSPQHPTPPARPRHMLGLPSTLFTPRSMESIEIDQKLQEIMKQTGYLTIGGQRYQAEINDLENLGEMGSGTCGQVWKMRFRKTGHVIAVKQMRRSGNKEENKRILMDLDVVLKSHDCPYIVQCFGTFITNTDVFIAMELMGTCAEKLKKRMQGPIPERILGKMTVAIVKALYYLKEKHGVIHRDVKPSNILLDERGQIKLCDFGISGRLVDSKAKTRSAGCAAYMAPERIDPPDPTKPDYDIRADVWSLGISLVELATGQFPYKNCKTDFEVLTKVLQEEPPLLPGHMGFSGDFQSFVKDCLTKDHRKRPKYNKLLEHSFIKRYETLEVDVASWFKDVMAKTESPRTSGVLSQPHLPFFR

[13] = biological target: T2, Serine/threonine-protein kinase Nek2 (Homo sapiens) (UniProt P51955); conditions: Compound concentration 100.0 nM
T2 sequence (whole entry): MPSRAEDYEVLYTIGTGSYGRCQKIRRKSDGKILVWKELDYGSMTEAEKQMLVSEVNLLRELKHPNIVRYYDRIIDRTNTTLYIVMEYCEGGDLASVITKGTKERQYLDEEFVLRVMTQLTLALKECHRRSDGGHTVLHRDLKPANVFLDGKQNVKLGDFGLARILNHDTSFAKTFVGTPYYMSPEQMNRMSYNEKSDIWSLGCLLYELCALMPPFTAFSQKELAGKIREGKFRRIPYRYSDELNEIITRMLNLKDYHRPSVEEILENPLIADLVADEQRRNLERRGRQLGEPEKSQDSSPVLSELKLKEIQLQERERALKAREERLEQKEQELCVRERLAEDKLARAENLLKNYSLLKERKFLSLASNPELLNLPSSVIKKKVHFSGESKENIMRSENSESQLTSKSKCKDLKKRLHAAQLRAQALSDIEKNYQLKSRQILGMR

[14] = biological target: Serine/threonine-protein kinase OSR1 (Homo sapiens) (UniProt O95747); conditions: Compound concentration 100.0 nM
[15] = biological target: Phosphatidylinositol 4,5-bisphosphate 3-kinase catalytic subunit beta isoform (Homo sapiens) (UniProt P42338); conditions: Compound concentration 100.0 nM
[16] = biological target: Serine/threonine-protein kinase PLK1 (Homo sapiens) (UniProt P53350); conditions: Compound concentration 100.0 nM
[17] = biological target: Dual serine/threonine and tyrosine protein kinase (Homo sapiens) (UniProt Q6XUX3); conditions: Compound concentration 100.0 nM
[18] = biological target: Serine/threonine-protein kinase tousled-like 2 (Homo sapiens) (UniProt Q86UE8); conditions: Compound concentration 100.0 nM
[19] = biological target: Activated CDC42 kinase 1 (Homo sapiens) (UniProt Q07912); conditions: Compound concentration 100.0 nM
[20] = biological target: Tyrosine-protein kinase TXK (Homo sapiens) (UniProt P42681); conditions: Compound concentration 100.0 nM
[21] = biological target: Serine/threonine-protein kinase ULK2 (Homo sapiens) (UniProt Q8IYT8); conditions: Compound concentration 100.0 nM
[22] = biological target: Vascular endothelial growth factor receptor 2 (Homo sapiens) (UniProt P35968); conditions: Compound concentration 100.0 nM
[23] = biological target: T3, Tyrosine-protein kinase ZAP-70 (Homo sapiens) (UniProt P43403); conditions: Compound concentration 100.0 nM
T3 sequence (whole entry): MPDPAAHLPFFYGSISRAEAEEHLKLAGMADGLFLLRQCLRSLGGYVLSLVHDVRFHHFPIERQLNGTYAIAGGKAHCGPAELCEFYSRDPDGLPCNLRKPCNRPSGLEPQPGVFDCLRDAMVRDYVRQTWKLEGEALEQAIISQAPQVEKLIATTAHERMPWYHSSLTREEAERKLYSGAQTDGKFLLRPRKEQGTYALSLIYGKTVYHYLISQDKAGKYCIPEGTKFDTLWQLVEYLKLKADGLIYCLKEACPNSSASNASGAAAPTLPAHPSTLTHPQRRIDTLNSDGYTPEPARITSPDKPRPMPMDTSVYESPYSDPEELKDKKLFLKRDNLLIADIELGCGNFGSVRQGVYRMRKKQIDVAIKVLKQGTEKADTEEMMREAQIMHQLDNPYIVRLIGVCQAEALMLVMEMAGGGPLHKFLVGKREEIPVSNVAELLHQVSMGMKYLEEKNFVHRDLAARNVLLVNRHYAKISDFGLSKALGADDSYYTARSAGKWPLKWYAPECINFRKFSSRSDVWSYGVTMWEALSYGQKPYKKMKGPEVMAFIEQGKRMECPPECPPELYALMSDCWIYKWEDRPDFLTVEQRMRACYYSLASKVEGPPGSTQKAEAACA

[24] = biological target: GABA-A receptor; anion channel (Rattus norvegicus) (UniProt O09028+P15431+P18506+P18508+P19969+P20236+P23574+P23576+P28471+P28473+P30191+P62813+P63079+P63138+Q91ZM7+Q9ES14); conditions: Compound concentration 10.0 uM

Leucine-rich repeat serine/threonine-protein kinase 2 (Homo sapiens), sequence (Q5S007 whole entry): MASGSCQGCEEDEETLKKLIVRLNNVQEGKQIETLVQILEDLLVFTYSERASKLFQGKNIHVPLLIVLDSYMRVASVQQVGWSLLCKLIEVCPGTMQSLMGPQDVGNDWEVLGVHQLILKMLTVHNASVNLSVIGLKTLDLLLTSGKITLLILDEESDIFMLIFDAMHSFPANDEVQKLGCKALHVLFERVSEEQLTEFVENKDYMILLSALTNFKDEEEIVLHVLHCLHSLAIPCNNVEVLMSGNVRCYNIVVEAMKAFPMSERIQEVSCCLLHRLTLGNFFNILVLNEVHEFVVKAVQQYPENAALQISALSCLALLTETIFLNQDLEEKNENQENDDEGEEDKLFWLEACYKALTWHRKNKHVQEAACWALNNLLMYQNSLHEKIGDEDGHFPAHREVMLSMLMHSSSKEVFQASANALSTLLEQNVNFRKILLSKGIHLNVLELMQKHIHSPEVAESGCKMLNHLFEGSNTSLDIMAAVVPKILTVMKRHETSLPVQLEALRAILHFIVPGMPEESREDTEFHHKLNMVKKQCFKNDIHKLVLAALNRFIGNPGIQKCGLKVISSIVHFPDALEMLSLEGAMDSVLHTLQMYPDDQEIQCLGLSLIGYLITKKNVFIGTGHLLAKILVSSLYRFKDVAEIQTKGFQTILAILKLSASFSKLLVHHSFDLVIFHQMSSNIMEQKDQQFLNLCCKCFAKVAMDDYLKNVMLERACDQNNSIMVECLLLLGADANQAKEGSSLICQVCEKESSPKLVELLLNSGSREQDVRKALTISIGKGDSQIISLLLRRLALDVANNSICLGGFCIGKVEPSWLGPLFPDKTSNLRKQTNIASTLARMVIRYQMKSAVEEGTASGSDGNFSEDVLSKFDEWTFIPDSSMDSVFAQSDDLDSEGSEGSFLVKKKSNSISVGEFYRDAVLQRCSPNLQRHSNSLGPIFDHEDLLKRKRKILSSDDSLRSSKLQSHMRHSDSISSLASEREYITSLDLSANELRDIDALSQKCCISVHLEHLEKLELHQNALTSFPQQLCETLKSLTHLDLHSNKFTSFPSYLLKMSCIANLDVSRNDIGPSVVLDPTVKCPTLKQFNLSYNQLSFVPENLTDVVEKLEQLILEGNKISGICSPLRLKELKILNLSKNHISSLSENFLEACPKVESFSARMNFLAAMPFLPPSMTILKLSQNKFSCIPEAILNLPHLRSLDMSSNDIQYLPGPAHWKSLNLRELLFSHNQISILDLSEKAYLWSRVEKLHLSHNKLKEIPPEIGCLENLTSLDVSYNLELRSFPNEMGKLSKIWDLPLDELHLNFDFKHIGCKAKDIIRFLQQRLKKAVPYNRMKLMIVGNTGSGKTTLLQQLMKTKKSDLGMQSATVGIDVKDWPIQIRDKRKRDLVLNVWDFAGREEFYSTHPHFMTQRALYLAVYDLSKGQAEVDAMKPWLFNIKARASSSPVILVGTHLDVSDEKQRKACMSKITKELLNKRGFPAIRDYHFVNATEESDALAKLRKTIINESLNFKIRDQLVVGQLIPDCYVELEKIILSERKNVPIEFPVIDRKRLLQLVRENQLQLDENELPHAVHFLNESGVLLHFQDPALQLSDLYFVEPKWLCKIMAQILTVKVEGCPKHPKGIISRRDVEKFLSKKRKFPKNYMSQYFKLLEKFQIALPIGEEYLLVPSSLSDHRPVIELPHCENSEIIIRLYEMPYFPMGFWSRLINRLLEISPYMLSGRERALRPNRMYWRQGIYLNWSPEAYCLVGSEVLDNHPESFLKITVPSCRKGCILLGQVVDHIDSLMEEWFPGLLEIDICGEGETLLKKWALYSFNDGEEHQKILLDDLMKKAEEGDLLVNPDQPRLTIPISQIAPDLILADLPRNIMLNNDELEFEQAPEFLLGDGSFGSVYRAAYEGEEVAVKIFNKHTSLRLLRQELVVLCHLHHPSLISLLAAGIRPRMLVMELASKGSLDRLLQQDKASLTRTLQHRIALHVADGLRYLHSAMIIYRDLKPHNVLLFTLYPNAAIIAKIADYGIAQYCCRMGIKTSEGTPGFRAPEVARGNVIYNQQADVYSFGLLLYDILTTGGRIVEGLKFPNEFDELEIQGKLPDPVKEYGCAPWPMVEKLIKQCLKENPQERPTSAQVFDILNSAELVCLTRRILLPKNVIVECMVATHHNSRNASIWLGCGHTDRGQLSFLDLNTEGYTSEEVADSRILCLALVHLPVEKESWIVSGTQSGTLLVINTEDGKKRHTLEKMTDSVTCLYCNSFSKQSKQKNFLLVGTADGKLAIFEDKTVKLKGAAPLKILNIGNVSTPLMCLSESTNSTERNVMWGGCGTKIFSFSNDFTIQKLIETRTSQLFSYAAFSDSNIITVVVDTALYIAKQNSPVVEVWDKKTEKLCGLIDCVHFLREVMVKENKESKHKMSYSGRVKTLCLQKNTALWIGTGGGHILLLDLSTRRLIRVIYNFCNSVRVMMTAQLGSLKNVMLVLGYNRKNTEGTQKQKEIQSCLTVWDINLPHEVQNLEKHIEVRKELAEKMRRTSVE
Vascular endothelial growth factor receptor 2 (Homo sapiens), sequence (P35968 whole entry): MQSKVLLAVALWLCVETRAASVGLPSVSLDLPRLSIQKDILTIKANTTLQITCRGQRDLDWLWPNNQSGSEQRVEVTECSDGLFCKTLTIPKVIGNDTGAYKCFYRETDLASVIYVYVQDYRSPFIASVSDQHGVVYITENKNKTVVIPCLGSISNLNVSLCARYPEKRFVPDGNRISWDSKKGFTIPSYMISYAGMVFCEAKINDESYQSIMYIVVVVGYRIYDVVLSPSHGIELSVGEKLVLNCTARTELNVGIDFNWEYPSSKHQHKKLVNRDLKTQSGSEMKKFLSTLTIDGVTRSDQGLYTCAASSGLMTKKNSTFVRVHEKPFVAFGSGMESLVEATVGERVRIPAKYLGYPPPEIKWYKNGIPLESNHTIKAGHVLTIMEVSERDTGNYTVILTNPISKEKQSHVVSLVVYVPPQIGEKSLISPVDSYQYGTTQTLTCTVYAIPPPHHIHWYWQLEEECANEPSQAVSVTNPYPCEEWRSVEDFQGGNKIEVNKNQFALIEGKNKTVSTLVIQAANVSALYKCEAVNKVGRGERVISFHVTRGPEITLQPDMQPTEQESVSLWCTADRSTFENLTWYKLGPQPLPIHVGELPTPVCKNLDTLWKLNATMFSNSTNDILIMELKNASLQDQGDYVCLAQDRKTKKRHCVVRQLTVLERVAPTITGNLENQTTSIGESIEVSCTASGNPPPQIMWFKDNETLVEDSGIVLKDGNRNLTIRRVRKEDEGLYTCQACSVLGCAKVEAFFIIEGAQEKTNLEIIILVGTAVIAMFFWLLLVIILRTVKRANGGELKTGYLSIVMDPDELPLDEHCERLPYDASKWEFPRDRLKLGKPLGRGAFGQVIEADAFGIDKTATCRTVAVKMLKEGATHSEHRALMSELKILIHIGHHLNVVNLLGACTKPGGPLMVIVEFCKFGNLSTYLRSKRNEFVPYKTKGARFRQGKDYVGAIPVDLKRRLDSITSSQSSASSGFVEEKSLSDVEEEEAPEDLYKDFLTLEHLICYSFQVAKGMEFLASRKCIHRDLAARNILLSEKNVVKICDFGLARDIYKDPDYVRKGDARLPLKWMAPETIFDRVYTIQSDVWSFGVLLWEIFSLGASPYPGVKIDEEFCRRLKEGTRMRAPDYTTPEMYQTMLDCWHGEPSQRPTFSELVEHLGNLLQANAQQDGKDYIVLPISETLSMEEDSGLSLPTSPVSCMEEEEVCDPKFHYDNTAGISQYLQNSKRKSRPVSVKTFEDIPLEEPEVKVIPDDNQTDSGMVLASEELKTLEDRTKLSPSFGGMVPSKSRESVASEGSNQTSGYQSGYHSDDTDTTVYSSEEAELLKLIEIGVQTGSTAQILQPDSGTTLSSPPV
Serine/threonine-protein kinase tousled-like 2 (Homo sapiens), sequence (Q86UE8 whole entry, looked up): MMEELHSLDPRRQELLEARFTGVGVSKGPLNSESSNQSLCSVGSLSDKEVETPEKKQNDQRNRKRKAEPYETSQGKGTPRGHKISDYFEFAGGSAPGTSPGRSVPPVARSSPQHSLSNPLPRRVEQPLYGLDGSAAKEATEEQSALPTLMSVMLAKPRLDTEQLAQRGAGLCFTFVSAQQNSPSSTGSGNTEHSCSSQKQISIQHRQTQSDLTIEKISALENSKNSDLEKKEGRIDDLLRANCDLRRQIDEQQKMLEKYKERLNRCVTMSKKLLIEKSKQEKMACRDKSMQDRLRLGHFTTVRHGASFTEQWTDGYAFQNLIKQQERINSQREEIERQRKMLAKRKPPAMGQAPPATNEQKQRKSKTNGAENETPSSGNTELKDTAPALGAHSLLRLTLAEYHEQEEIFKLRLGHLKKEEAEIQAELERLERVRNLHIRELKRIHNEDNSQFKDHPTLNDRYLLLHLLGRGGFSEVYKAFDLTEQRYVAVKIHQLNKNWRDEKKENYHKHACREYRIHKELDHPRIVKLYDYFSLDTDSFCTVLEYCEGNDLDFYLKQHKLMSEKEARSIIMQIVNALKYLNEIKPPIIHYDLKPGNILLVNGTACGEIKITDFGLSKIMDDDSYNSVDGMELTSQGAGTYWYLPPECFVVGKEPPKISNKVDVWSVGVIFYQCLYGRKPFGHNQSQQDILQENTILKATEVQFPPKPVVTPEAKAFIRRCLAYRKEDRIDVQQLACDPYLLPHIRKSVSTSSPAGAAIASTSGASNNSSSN
Dual specificity protein kinase CLK3 (Homo sapiens), sequence (P49761 whole entry, looked up): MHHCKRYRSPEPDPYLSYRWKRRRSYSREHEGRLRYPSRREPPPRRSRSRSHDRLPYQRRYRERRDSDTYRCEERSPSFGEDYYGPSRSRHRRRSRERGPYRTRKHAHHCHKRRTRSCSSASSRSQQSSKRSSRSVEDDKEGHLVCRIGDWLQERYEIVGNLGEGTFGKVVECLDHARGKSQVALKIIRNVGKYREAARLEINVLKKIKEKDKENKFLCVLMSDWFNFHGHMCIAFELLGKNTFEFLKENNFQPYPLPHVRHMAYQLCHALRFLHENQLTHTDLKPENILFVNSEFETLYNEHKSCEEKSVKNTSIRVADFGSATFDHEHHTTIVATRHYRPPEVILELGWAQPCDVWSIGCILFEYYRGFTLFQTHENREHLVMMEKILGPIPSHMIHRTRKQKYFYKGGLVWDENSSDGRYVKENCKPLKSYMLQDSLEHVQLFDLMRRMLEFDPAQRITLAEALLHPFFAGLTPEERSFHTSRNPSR

Cn1cc(Cl)c2c(Oc3c(F)cc(Nc4cc(Cl)nc(N)n4)cc3F)ccnc21 [BAY-4900]
inactive: residual activity [1] 100% | residual activity [2] 91% | residual activity [3] 100% | residual activity [4] 84% | residual activity [5] 83% | residual activity [6] 100% | residual activity [7] 81% | residual activity [8] 72% | residual activity [9] 86% | residual activity [10] 100% | residual activity [11] 75% | residual activity [12] 84% | residual activity [13] 100% | residual activity [14] 93% | residual activity [15] 82% | residual activity [16] 83% | residual activity [17] 98% | residual activity [18] 100% | residual activity [19] 85% | residual activity [20] 100% | residual activity [21] 100% | residual activity [22] 93% | residual activity [23] 100% | inhibition [24] 1.6%

Cc1c[nH]c2nccc(Oc3c(F)cc(Nc4cc(Cl)nc(N)n4)cc3F)c12 [BAY-549]
inactive: residual activity [1] 99% | residual activity [2] 91% | residual activity [3] 87% | residual activity [4] 100% | residual activity [5] 97% | residual activity [6] 100% | residual activity [7] 98% | residual activity [8] 75% | residual activity [9] 93% | residual activity [10] 72% | residual activity [11] 100% | residual activity [12] 67% | residual activity [13] 97% | residual activity [14] 92% | residual activity [15] 76% | residual activity [16] 75% | residual activity [17] 67% | residual activity [18] 95% | residual activity [19] 95% | residual activity [20] 100% | residual activity [21] 89% | residual activity [22] 81% | residual activity [23] 100% | inhibition [24] 4.87%
